# Data as given in patent US20060069132A1, “Azolecarboxamide herbicides” (priority 2004, published 2006).
# What was measured:
# barnyardgrass [1] = assay: Test B pre-/postemergence herbicide test; format: in vivo, Echinochloa crus-galli; conditions: for Barnyardgrass plant response rating: postemergence
# How it was run: (§1)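 Visual rating, 0 (no effect) to 100 (complete control), versus untreated controls after 13–15 d in greenhouse. Pre- and postemergence applications (postemergence plants 2–18 cm, 1–4 leaves); flooded paddy arm at 2-leaf stage. Compounds in non-phytotoxic solvent plus surfactant.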
# Surinam grass = assay: Test B pre-/postemergence herbicide test; format: in vivo, Urochloa decumbens; conditions: for Surinam Grass plant response rating: postemergence
# How it was run: (§2)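 Seeds were planted and treated preemergence with compounds formulated in a non-phytotoxic solvent mixture containing surfactant, while plants at the 1- to 4-leaf stage (2 to 18 cm) received postemergence sprays. Flooded paddy plants were grown to the 2-leaf stage. After 13 to 15 days in a greenhouse, injury was visually rated 0–100 against untreated controls.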
# cocklebur = assay: Test B pre-/postemergence herbicide test; format: in vivo, Xanthium strumarium; conditions: for Cocklebur plant response rating: postemergence
# How it was run: as §1
# corn = assay: Test B pre-/postemergence herbicide test; format: in vivo, Zea mays; conditions: for Corn plant response rating: postemergence
# How it was run: as §2
# large crabgrass = assay: Test B pre-/postemergence herbicide test; format: in vivo, Digitaria sanguinalis; conditions: for Crabgrass, Large plant response rating: postemergence
# How it was run: as §2
# giant foxtail = assay: Test B pre-/postemergence herbicide test; format: in vivo, Setaria faberi; conditions: for Foxtail, Giant plant response rating: postemergence
# How it was run: as §2
# lambsquarters = assay: Test B pre-/postemergence herbicide test; format: in vivo, Chenopodium album; conditions: for Lambsquarters plant response rating: postemergence
# How it was run: as §2
# morningglory = assay: Test B pre-/postemergence herbicide test; format: in vivo, Ipomoea coccinea; conditions: for Morningglory plant response rating: postemergence
# How it was run: as §1
# pigweed = assay: Test B pre-/postemergence herbicide test; format: in vivo, Amaranthus retroflexus; conditions: for Pigweed plant response rating: postemergence
# How it was run: as §2
# velvetleaf = assay: Test B pre-/postemergence herbicide test; format: in vivo, Abutilon theophrasti; conditions: for Velvetleaf plant response rating: postemergence
# How it was run: as §2
# blackgrass = assay: Test B postemergence herbicide test; format: in vivo, Alopecurus myosuroides; conditions: postemergence
# How it was run: (§3)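 Visual ratings, 0 (no effect) to 100 (complete control), made versus controls after 13–15 d greenhouse. Paddy plants treated at 2-leaf stage; postemergence plants at 1- to 4-leaf stage, 2–18 cm tall.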
# wheat = assay: Test B postemergence herbicide test; format: in vivo, Triticum aestivum; parameters: key to Wheat plant response rating: 0 = no effect, 100 = complete control; conditions: postemergence
# How it was run: (§4)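 Plants grow to 1- to 4-leaf stage (2–18 cm) for postemergence spraying, or to 2-leaf stage for the paddy test. Formulated compound is applied. Greenhouse holding lasts 13–15 days. Response is scored visually relative to controls, 0 no effect to 100 complete control; a dash means no result.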
# wild oat = assay: Test B postemergence herbicide test; format: in vivo, Avena fatua; conditions: postemergence
# How it was run: as §4
# rice [2] = assay: Test B flooded paddy test; format: in vivo, Oryza sativa; conditions: 1000 g ai/ha, scale 0 to 100 (0 no effect, 100 complete control)
# How it was run: as §3
# [3] = system: small flower umbrella sedge; assay: Test B flooded paddy test; format: in vivo, Cyperus difformis; conditions: 1000 g ai/ha, scale 0 to 100 (0 no effect, 100 complete control)
# How it was run: as §3
# ducksalad [4] = assay: Test B flooded paddy test; format: in vivo, Heteranthera limosa; conditions: 1000 g ai/ha, scale 0 to 100 (0 no effect, 100 complete control)
# How it was run: as §3
# barnyardgrass [5] = assay: Test B flooded paddy test; format: in vivo, Echinochloa crus-galli; conditions: 1000 g ai/ha, scale 0 to 100 (0 no effect, 100 complete control)
# How it was run: as §3
# rice [6] = assay: Test C flooded paddy test; format: in vivo, Oryza sativa
# How it was run: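 Postemergence sprays applied to plants 2 to 18 cm tall (1- to 4-leaf stage); paddy species grown to 2-leaf stage under flooding. After 12 to 14 days in greenhouse, visual rating versus untreated controls on 0–100 scale (0 no effect, 100 complete control).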
# [7] = system: smallflower umbrella sedge; assay: Test C flooded paddy test; format: in vivo, Cyperus difformis
# ducksalad [8] = assay: Test C flooded paddy test; format: in vivo, Heteranthera limosa
# barnyardgrass [9] = assay: Test C flooded paddy test; format: in vivo, Echinochloa crus-galli
# How it was run: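 Visual rating, 0 (no effect) to 100 (complete control), vs. controls at 12–14 d in greenhouse. Postemergence: 1–4-leaf plants, 2–18 cm. Paddy: flooded, barnyardgrass at 2-leaf stage.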
# [10] = 125 g ai/ha, 0 is no effect, 100 is complete control, preemergence
# [11] = 125 g ai/ha, visual rating, scale 0 (no effect) to 100 (complete control)
# [12] = 500 g ai/ha, visual rating, 0 = no effect, 100 = complete control, preemergence
# [13] = 500 g ai/ha, scale 0 to 100, 0 is no effect, 100 is complete control
# [14] = 125 g ai/ha, scale 0 to 100 (0 no effect, 100 complete control)
# [15] = 250 g ai/ha, scale of 0 to 100, 0 is no effect, 100 is complete control
# [16] = 500 g ai/ha, visual rating after 12 to 14 days, scale 0 to 100 (0 no effect, 100 complete control)
compound,measurement,setting,value
CCNC(=O)c1cccc(NC(=O)c2nn(C(C)C)nc2CC)c1 [Compound 357],"Plant response rating (0 to 100 scale), Barnyardgrass",barnyardgrass [1]; [10],30
same,Barnyardgrass plant response rating,barnyardgrass [1]; [11],0
same,"Plant response rating, Barnyardgrass",barnyardgrass [1]; [12],80
same,Barnyardgrass plant response rating,barnyardgrass [1]; [13],10
same,"Plant response rating (0 to 100 scale), Surinam Grass",Surinam grass; [10],30
same,Surinam Grass plant response rating,Surinam grass; [11],10
same,"Plant response rating, Surinam Grass",Surinam grass; [12],80
same,Surinam Grass plant response rating,Surinam grass; [13],20
same,"Plant response rating (0 to 100 scale), Cocklebur",cocklebur; [10],0
same,Cocklebur plant response rating,cocklebur; [11],10
same,"Plant response rating, Cocklebur",cocklebur; [12],30
same,Cocklebur plant response rating,cocklebur; [13],20
same,"Plant response rating (0 to 100 scale), Corn",corn; [10],0
same,Corn plant response rating,corn; [11],0
same,"Plant response rating, Corn",corn; [12],80
same,Corn plant response rating,corn; [13],20
same,"Plant response rating (0 to 100 scale), Crabgrass, Large",large crabgrass; [10],70
same,"Crabgrass, Large plant response rating",large crabgrass; [11],0
same,"Plant response rating, Crabgrass, Large",large crabgrass; [12],100
same,"Crabgrass, Large plant response rating",large crabgrass; [13],10
same,"Plant response rating (0 to 100 scale), Foxtail, Giant",giant foxtail; [10],20
same,"Foxtail, Giant plant response rating",giant foxtail; [11],30
same,"Plant response rating, Foxtail, Giant",giant foxtail; [12],100
same,"Foxtail, Giant plant response rating",giant foxtail; [13],40
same,"Plant response rating (0 to 100 scale), Lambsquarters",lambsquarters; [10],90
same,Lambsquarters plant response rating,lambsquarters; [11],30
same,"Plant response rating, Lambsquarters",lambsquarters; [12],100
same,Lambsquarters plant response rating,lambsquarters; [13],60
same,"Plant response rating (0 to 100 scale), Morningglory",morningglory; [10],10
same,Morningglory plant response rating,morningglory; [11],10
same,"Plant response rating, Morningglory",morningglory; [12],70
same,Morningglory plant response rating,morningglory; [13],30
same,"Plant response rating (0 to 100 scale), Pigweed",pigweed; [10],100
same,Pigweed plant response rating,pigweed; [11],20
same,"Plant response rating, Pigweed",pigweed; [12],100
same,Pigweed plant response rating,pigweed; [13],40
same,"Plant response rating (0 to 100 scale), Velvetleaf",velvetleaf; [10],0
same,Velvetleaf plant response rating,velvetleaf; [11],20
same,Velvetleaf plant response rating,velvetleaf; [13],20
same,Blackgrass plant response rating,blackgrass; [11],0
same,Blackgrass plant response rating,blackgrass; [13],30
same,Wheat plant response rating,wheat; [11],0
same,Wheat plant response rating,wheat; [13],0
same,"Oat, Wild plant response rating",wild oat; [11],0
same,"Oat, Wild plant response rating",wild oat; [13],30
same,Rice plant response rating,rice [2],70
same,"Sedge, Umbrella plant response rating",[3],80
same,Ducksalad plant response rating,ducksalad [4],80
same,Barnyardgrass plant response rating,barnyardgrass [5],70
same,Rice plant response rating,"rice [6]; 62 g ai/ha, scale 0 to 100",0
same,Rice plant response rating,rice [6]; [14],0
same,Rice plant response rating,rice [6]; [15],45
same,"Plant response rating, Rice",rice [6]; [16],70
same,"Sedge, Umbrella plant response rating","[7]; 62 g ai/ha, scale 0 to 100",40
same,"Sedge, Umbrella plant response rating",[7]; [14],85
same,"Sedge, Umbrella plant response rating",[7]; [15],90
same,"Plant response rating, Sedge, Umbrella",[7]; [16],95
same,Ducksalad plant response rating,"ducksalad [8]; 62 g ai/ha, scale 0 to 100",30
same,Ducksalad plant response rating,ducksalad [8]; [14],30
same,Ducksalad plant response rating,ducksalad [8]; [15],45
same,"Plant response rating, Ducksalad",ducksalad [8]; [16],95
same,Barnyardgrass plant response rating,"barnyardgrass [9]; 62 g ai/ha, scale 0 to 100 (0 no effect, 100 complete control)",0
same,Barnyardgrass plant response rating,barnyardgrass [9]; [14],0
same,Barnyardgrass plant response rating,barnyardgrass [9]; [15],30
same,"Plant response rating, Barnyardgrass",barnyardgrass [9]; [16],55
